Reference: PMC4471201, “Micafungin concentrations 100 mg daily in plasma and burn eschars in patients with severe burn injuries” (Critical Care, 2015)
*1 amine or outer side, *2 acyl side, *3 side chain or, on linkers, in order; H or OH if unused. Where a SMILES comes first, the peptide text is derived from it. Bridges are numbered along the chain shown (N, C = ends). [ ]: non-standard residue; d: D form. The star is where a group is joined. hTyr(3S-OH,4S-OH,3'-OSO3H) = N[C@H](C(=O)O)[C@H](O)[C@@H](O)c1ccc(O)c(OS(=O)(=O)O)c1; Orn(4R-OH,5R-OH) = O=C([C@H](C[C@@H](O)[C@@H](O)N[*:3])N[*:1])[*:2]; Pro(3S-OH,4S-Me) = C[C@H]1CN[C@H](C(=O)O)[C@H]1O; X1 = CCCCCOc1ccc(-c2cc(-c3ccc(C(=O)*)cc3)no2)cc1; Gln(3R-OH) = NC(=O)C[C@@H](O)[C@H](N)C(=O)O; Hyp = O=C(O)[C@@H]1C[C@@H](O)CN1

Experiments:
Format in all cases: in vivo
[1] = Tolerability of MCF 100 mg/day in severely burned patients; details: 10 severely burned patients
Method: (§1) A PK study of MCF at standard dosage (100 mg/day). Cmax (end of the infusion) and Cmin (before next dose) plasma levels of MCF were obtained after first dose and at steady state (days 4 and 5 of therapy); and on day 5 in eschars (1 to 3 hours after infusion). They were measured by HPLC. Spearman's rho test was used for bivariate correlations between MCF exposure and patient's clinical factors.
There were 10 patients (eight men; age: 18 to 77 years). […] Peak plasma concentrations after the first and repeated doses of MCF were inversely correlated with % burned TBSA (Spearman's ρ = -0.695 and -0.750 (P < 0.05)), respectively, but not with the time from burn injury. […] One patient had candidemia. The crude mortality was 40%.

[2] = MCF levels in burn eschar tissue on day 5, HPLC; details: Spearman's rho test; 10 patients
Method: as §1

[3] = Plasma levels of MCF (Cmax/Cmin) in severely burned patients, HPLC; details: 100 mg/day
Method: as §1

Compound: CCCCCOc1ccc(-c2cc(-c3ccc(C(=O)N[C@H]4C[C@@H](O)[C@@H](O)NC(=O)[C@@H]5[C@@H](O)[C@@H](C)CN5C(=O)[C@H]([C@H](O)CC(N)=O)NC(=O)[C@H]([C@H](O)[C@@H](O)c5ccc(O)c(OS(=O)(=O)O)c5)NC(=O)[C@@H]5C[C@@H](O)CN5C(=O)[C@H]([C@@H](C)O)NC4=O)cc3)no2)cc1 [MCF, Micafungin] (X1-[Orn(4R-OH,5R-OH)]T[Hyp][hTyr(3S-OH,4S-OH,3'-OSO3H)][Gln(3R-OH)][Pro(3S-OH,4S-Me)]; lactam 1-C)
- Tolerability [1]: well tolerated
- Correlation of concentrations in burn eschars with % burned TBSA [2]: not correlated
- Plasma levels compared with MIC90 against most clinically important Candida species ([3]; after first and multiple doses): above the MIC90
- Plasma Cmin after first dose, median ([3]; median of 10 patients, before next dose, plasma, HPLC): 700 ng/mL
- Plasma Cmin at steady state, median ([3]; median of 10 patients, days 4 and 5 of therapy, before next dose, plasma, HPLC): 1000 ng/mL
- Plasma Cmax at steady state, median ([3]; median of 10 patients, days 4 and 5 of therapy, end of the infusion, plasma, HPLC): 6400 ng/mL
- Plasma Cmax after first dose, median ([3]; median of 10 patients, end of the infusion, plasma, HPLC): 4700 ng/mL
